Measured values from ChEMBL document CHEMBL4414576, “Recent advancements in mechanistic studies and structure activity relationship of FoF1 ATP synthase inhibitor as antimicrobial agent” (Eur J Med Chem, 2019).

System: Mycobacterium tuberculosis variant bovis
Assay: Antimicrobial activity against Mycobacterium bovis after 1 to 5 days by two-fold dilution
Format: functional, organism-based

## FC(F)(F)Oc1cccc(CNCCNC2C3CC4CC(C3)C2C4)c1 (stereo unspecified)
  IC50: 1250 nM
